The record followed here is article PMC3900240 (Biochimica et biophysica acta, 2013).

The target in this experiment is T1, SoArsAB (Sporomusa ovata, UniProt F6MZ55+F6MZ56).
T1 sequence (F6MZ55 5-350 limits assumed): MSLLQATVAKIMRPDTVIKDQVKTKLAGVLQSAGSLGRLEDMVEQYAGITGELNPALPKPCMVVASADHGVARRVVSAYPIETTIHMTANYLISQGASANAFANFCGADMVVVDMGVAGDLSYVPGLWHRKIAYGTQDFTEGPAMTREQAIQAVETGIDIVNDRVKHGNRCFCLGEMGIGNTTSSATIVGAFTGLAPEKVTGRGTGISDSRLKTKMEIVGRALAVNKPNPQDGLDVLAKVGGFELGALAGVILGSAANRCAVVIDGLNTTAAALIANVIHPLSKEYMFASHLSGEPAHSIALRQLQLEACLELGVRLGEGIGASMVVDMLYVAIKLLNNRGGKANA
T1 sequence (F6MZ56 1-350): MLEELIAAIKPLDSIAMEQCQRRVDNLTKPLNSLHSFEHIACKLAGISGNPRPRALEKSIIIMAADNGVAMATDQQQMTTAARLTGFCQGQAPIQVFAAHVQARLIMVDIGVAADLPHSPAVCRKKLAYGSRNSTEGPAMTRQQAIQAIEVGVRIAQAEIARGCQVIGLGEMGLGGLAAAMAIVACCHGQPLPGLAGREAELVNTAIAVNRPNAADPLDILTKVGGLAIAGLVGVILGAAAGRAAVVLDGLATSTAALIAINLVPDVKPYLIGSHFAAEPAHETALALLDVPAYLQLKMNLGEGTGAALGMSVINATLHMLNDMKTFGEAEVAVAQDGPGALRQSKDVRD
Briefly: HPLC product formation. The format is biochemical. To be noted: pH 10, 37 °C, 6 h.

For the compound `O=C([O-])c1ccc[n+]([C@@H]2O[C@H](COP(=O)(O)O)[C@@H](O)[C@H]2O)c1` [NaMN, nicotinate mononucleotide], the HPLC product formation entry (3 mM p-cresol) is “using SeCobT^WT, SeCobT^S80Y,Q88M,L175M or SoArsAB with NaMN and p-cresol”.
In the case of `Cc1ccc(O)cc1` [p-cresol], the HPLC product formation entry (3 mM NaMN) was “using SeCobT^WT, SeCobT^S80Y,Q88M,L175M or SoArsAB with NaMN and p-cresol”.
